From US10175256B2, “Compositions and methods utilizing lysophosphatidylcholine scaffolds” (National University Of Singapore, priority 2013, dated 2019)
“And” between values parts separate entries of the source, which are not always exact repeats. Identical values can stand only once.

What was measured:
[1] = molecular target: T1, Mfsd2a (Mus musculus, UniProt Q9DA75); experiment: In vivo transport of radiolabeled, fluorescent LPCs and unesterified DHA in Mfsd2a KO and wild-type mice; parameters: from tissue; host or cells: living mice; brain (blood-brain barrier endothelium), liver, heart; fetal brain
T1 sequence (Q9DA75 1-534): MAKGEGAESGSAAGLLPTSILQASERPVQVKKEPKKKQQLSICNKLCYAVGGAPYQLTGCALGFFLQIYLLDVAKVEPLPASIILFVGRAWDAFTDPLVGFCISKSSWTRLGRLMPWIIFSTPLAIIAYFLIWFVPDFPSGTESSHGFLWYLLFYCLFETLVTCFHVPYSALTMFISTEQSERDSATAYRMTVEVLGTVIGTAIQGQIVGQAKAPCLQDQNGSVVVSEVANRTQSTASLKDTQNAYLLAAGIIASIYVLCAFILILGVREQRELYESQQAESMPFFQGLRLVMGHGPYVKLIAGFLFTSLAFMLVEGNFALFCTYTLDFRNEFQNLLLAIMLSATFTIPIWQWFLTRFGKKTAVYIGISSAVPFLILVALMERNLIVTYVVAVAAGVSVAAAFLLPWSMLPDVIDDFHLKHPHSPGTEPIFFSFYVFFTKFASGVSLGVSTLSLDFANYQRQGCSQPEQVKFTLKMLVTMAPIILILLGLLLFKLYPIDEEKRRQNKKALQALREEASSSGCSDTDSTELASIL
Procedure: Male and female mice of age of 6-8 weeks were IV injected with 75 μl of 20 mM radiolabeled LPC-[…], 100 μl of 10 mM LPC-[^14C]DHA/BSA complex or 82 μl of 12.2 mM [^14C]DHA/BSA complex in a total volume of 150 μl of phosphate-buffered saline. At 2 hours post injection, mice were anesthetized and perfused for 5 mins with PBS containing 0.5% BSA in order to remove blood and lipid tracer bound to the brain vasculature. Tissues were harvested for lipid extraction. For lipid extraction, tissues were weighed and similar amounts of tissues were homogenized in chloroform/methanol. Lipids from the organic phase were mixed with scintillant and scintillation counted. Similar experiments were also performed with an injection of 300 μg NBD-LPC/BSA or 300 μg TopFluor-LPC/BSA complex per mouse. In this experiment, mice were perfused for 5 mins with PBS followed 15 mins perfusion with 4% paraformaldehyde (PFA) for tissue fixation. Brain sections of WT and KO with a thickness of 40 μm were prepared and scanned using green fluorescence mode in Typhoon FLA 9000 scanner (Agilent). NBD-LPC accumulation was expressed as fluorescence of each section per its area. Dietary DHA transport from mother to fetus was also measured using [^14C]DHA/BSA complex. Pregnant females at e18.5 was gavaged with bolus of [^14C]DHA/BSA complex (200 μl of 10 mM [^14C]DHA/BSA/mouse). Brain of fetuses were collected 20 hours post-gavage and weighed. Lipid extraction and radioactivity were performed as described above.

[2] = tested on: mouse Mfsd2a; experiment: Cell-based free fatty acid transport/uptake in Mfsd2a expressing HEK293 cells (mass spectrometry, TLC; Table 1); settings: mock HEK293 cells
Summary of the method: (§1)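 HEK293 cells expressing mouse Mfsd2a, or mock controls, were incubated overnight with 100 μM BSA-complexed fatty acids. Lipids were extracted in hexane:isopropanol (3:2) and phospholipid species quantified by HPLC-MS/MS against spiked internal standards. For TLC, cells received 100 μM [^14C]-oleate overnight, and phospholipids and neutral lipids were resolved.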

[3] = molecular target: T2, mouse Mfsd2a (Mus musculus, UniProt Q9DA75); experiment: as above; settings: for % DHA in PC + lysoPC / % DHA in PE + lysoPE / % DHA in PI and lysoPI / % DHA in PS: Mfsd2a expressing HEK293 cells
T2 construct: expressed in transfected cells; host or cells: HEK293
T2 sequence (Q9DA75 1-534): T1 sequence (Q9DA75 1-534)
Summary of the method: as §1

[4] = molecular target: T1, Mfsd2a; experiment: Dietary DHA transport from mother to fetus (fetal brain uptake); assay type: in vivo, mice; parameters: from tissue; host or cells: living mice; brain (blood-brain barrier endothelium), liver, heart; fetal brain
Procedure: FIG. 21. […] Heterozygous female mice were gavaged with 100 ul DHA oil (containing 26% DHA triglyceride and 6% EPA, total omega-3 is 35%) every 2 days for 2 weeks prior to conception in crosses with KO males. […] The rationale for using HET and KO intercrosses was to increase the yield of KO mice in this rescue study. During gestation, pregnant mice were continued on gavages of DHA every 2 days. Gavages of mothers continued during breastfeeding and pups were weaned onto normal diet at 3 weeks of age and gavaged every 2 days with DHA for 8 weeks. a, brain weight of adult WT (n=4) and KO (n=4) mice aged 8 weeks after treatment with dietary DHA oil. […] To test this possibility, pregnant het mothers intercrossed to KO fathers at e17.5-e19.5, were gavaged with [^14C]DHA and uptake into fetal brains were quantified. […] Data are expressed as mean±SEM. *P<0.05. ***P<0.001.
Male and female mice of age of 6-8 weeks were IV injected with 75 μl of 20 mM radiolabeled LPC-[…], 100 μl of 10 mM LPC-[^14C]DHA/BSA complex or 82 μl of 12.2 mM [^14C]DHA/BSA complex in a total volume of 150 μl of phosphate-buffered saline. […] Lipids from the organic phase were mixed with scintillant and scintillation counted. […] Brain sections of WT and KO with a thickness of 40 μm were prepared and scanned using green fluorescence mode in Typhoon FLA 9000 scanner (Agilent). […]

[5] = 100 uM Arachidonic fatty acid/BSA overnight
[6] = 100 uM Eicosapentaenoic fatty acid/BSA overnight
[7] = 100 uM Docosahexaenoic acid/BSA overnight
[8] = 100 uM Eicosapentaenoic acid/BSA overnight
[9] = 100 uM Linoleic fatty acid/BSA overnight
[10] = 100 uM Oleic fatty acid/BSA overnight
[11] = 100 uM Alpha-linolenic fatty acid/BSA overnight, replicate columns

## CCC=CCC=CCC=CCC=CCC=CCC=CCC[14C](=O)O [[^14C]DHA, [1-^14C]docosahexaenoic acid, reference compound]
[1]; i.v. injection, 2 hrs post-injection, radiolabel
  brain uptake in KO mice relative to wild-type: not reduced
[1]; wild-type brain, same amount injected i.v., 2 hrs
  brain uptake, unesterified DHA compared with LPC-DHA: significantly lower
[2]; [5]
  % DHA in PC + lysoPC: 0.09113% and 0.09288% and 0.09495%
  % DHA in PE + lysoPE: 8.696% and 8.987% and 7.919%
  % DHA in PI and lysoPI: 0.01273% and 0.01321% and 0.01121%
[2]; [6]
  % DHA in PE + lysoPE: 15.99% and 18.52% and 17.73%
  % DHA in PI and lysoPI: 0.03815% and 0.04977% and 0.04803%
  % DHA in PS: 0.1841% and 0.2258% and 0.1957%
[2]; [7]
  % DHA in PC + lysoPC: 0.4237% and 0.3234% and 0.432%
  % DHA in PE + lysoPE: 26.43% and 26.89% and 27.48%
  % DHA in PI and lysoPI: 0.204% and 0.2547% and 0.2244%
  % DHA in PS: 0.5491% and 0.6402% and 0.653%
[2]; [8]
  % DHA in PC + lysoPC: 0.1385% and 0.1469% and 0.1528%
[2]; [9]
  % DHA in PE + lysoPE: 9.697% and 10.5% and 10.2%
  % DHA in PI and lysoPI: 0.01565% and 0.01716% and 0.01581%
  % DHA in PS: 0.1596% and 0.1455% and 0.1427%
[2]; [10]
  % DHA in PC + lysoPC: 0.04427% and 0.04402% and 0.04911%
  % DHA in PE + lysoPE: 10.41% and 11.83% and 10.1%
  % DHA in PI and lysoPI: 0.01286% and 0.01294% and 0.01231%
[3]; HEK293 cells, 100 μM fatty acid/BSA overnight
  transport of unesterified fatty acid by Mfsd2a: did not transport
[3]; [11]
  % DHA in PC + lysoPC: 0.2353% and 0.2194% and 0.2422% and 0.2191%
  % DHA in PE + lysoPE: 13.49% and 15.19% and 13.82% and 14.8475%
  % DHA in PI and lysoPI: 0.05995% and 0.06331% and 0.07073% and 0.06627%
  % DHA in PS: 0.1602% and 0.1425% and 0.1723% and 0.1454%
[3]; [5]
  % DHA in PC + lysoPC: 0.08166% and 0.07964% and 0.09753% and 0.09194%
  % DHA in PE + lysoPE: 7.284% and 8.765% and 7.721% and 8.735%
  % DHA in PI and lysoPI: 0.01388% and 0.01389% and 0.0161% and 0.01507%
[3]; 100 uM Arachidonic fatty acid/BSA overnight, replicate columns
  % DHA in PS: 0.1231% and 0.1085% and 0.1181% and 0.1151%
[3]; [6]
  % DHA in PE + lysoPE: 18.3299% and 16.89% and 16.6% and 16.53%
  % DHA in PI and lysoPI: 0.048% and 0.05677% and 0.0498% and 0.05152%
  % DHA in PS: 0.2062% and 0.2182% and 0.1861% and 0.2178%
[3]; 100 uM Linoleic fatty acid/BSA overnight, replicate columns
  % DHA in PC + lysoPC: 0.06735% and 0.06556% and 0.06667% and 0.06486%
[3]; [7]
  % DHA in PC + lysoPC: 0.4167% and 0.3839% and 0.3923% and 0.3416%
  % DHA in PE + lysoPE: 26.88% and 25.05% and 25.61% and 24.93%
  % DHA in PI and lysoPI: 0.2363% and 0.1967% and 0.2348% and 0.1831%
  % DHA in PS: 0.4937% and 0.5293% and 0.485% and 0.4533%
[3]; [8]
  % DHA in PC + lysoPC: 0.1577% and 0.1414% and 0.143% and 0.141%
[3]; [9]
  % DHA in PE + lysoPE: 10.0396% and 9.979% and 10.14% and 10.29%
  % DHA in PI and lysoPI: 0.01746% and 0.01513% and 0.01522% and 0.01521%
  % DHA in PS: 0.1229% and 0.1239% and 0.1343% and 0.1145%
[3]; [10]
  % DHA in PC + lysoPC: 0.04304% and 0.04054% and 0.04274% and 0.04139%
  % DHA in PE + lysoPE: 10.39% and 10.24% and 9.206% and 11.33%
  % DHA in PI and lysoPI: 0.01405% and 0.01452% and 0.01424% and 0.01275%
[4]; e18.5, maternal gavage
  brain uptake by KO embryos compared to wild-type embryos: dramatically reduced
[4]; pregnant het mothers gavaged at e17.5-e19.5
  reduction in fetal brain uptake, KO relative to het: 80%
